Test results reported in patent US6525022B1, “Receptor specific atrial natriuretic peptides” (Genentech, Inc., priority 1993, dated 2003).

Tested on: rhesus monkey kidney membranes (NPR-A and NPR-C)
Test: Competition binding in rhesus monkey kidney membranes
Details: FIG. 11, rhesus monkey kidney membranes
Experimental: For preparation of membranes from Rhesus monkey tissues, frozen tissue was placed between parafilm and broken up into pieces by hitting with a hammer. Tissue was transferred to a 125 mL polypropylene tube containing 100 mL of ice-cold buffer #1 (50 mM HEPES, pH 7.4, 1 mM EDTA, 250 mM sucrose, 0.7 mg/mL pepstatin A, 0.5 mg/mL leupeptin, 1 mM PMSF, and 1 mM phosphoramidon). Tissue was homogenized with a Brinkman polytron on a setting of 5 two times for 10 sec. The sample was placed on ice between homogenizations. 11 mL of 30 mM MgCl2/100 mM NaCl containing 1 mM phosphoramidon was added to the homogenate. The homogenate was spun at 400×g for 10 min at 4° C. in a HB-4 rotor. The supernatant was transferred to another tube and spun as above. The supernatant was passed though four layers of sterile gauze then centrifuged at 30,000×g for 20 min at 4° C. in a 60 Ti rotor. […]
Membrane competition binding assays. […] The plates were washed six times with PBS, then air dried prior to adding scintillant and counted in a Packard Topcount scintillation counter for 1 min/well. Binding was measured in duplicate for each concentration of competitor.
Data analysis. The competition binding curves and cGMP production dose responses were analyzed by the four-parameter logistic equation with the KaleidaGraph™ program (Synergy Software, PA) to obtain estimates of the IC50 or EC50 values. […]

In the case of `CC[C@H](C)[C@@H]1NC(=O)[C@H](CCCNC(=N)N)NC(=O)[C@H](CC(=O)O)NC(=O)[C@H]([C@@H](C)CC)NC(=O)[C@H](CO)NC(=O)CNC(=O)[C@H]([C@@H](C)O)NC(=O)[C@H](Cc2ccccc2)NC(=O)[C@@H](NC(=O)[C@H](CO)NC(=O)[C@H](CO)NC(=O)[C@H](CCCNC(=N)N)NC(=O)[C@H](CCCNC(=N)N)NC(=O)[C@H](CC(C)C)NC(=O)[C@@H](N)CO)CSSC[C@@H](C(=O)N[C@@H](CC(N)=O)C(=O)N[C@@H](CO)C(=O)N[C@@H](Cc2ccccc2)C(=O)N[C@@H](CCCNC(=N)N)C(=O)N[C@@H](Cc2ccc(O)cc2)C(=O)O)NC(=O)CNC(=O)[C@H](CC(C)C)NC(=O)CNC(=O)[C@H](CO)NC(=O)[C@H](CCC(N)=O)NC(=O)[C@H](C)NC(=O)[C@H](CCCNC(=N)N)NC1=O` [ANF 27], the “Displacement of 125I-rat ANP binding” value is reported as “a smaller portion of the total binding is displaced”.
